Test system: intraperitoneal MDA-MB-435 xenograft tumors
Assay: Tumor reduction study, peritoneal carcinomatosis
Format: in vivo, SCID-mice
Details: 6×1.85 MBq i.p., days 16-26 after inoculation, groups of 8 mice; p = 0.04
Protocol: To generate intraperitoneal xenograft tumors, 6–8 week old SCID-mice (Charles River, Sulzfeld, Germany) were injected i.p. with 1×10^7 MDA-MB435 tumor cells. Mice were weighed weekly and were sacrificed when the mean normal body weigth decreased <25% or when mice developped tumor side effects like ascites or reduced general condititon. All experiments were performed according to the German law for the protection of animals.
SCID-mice (Charles River, Sulzfeld, Germany) were injected i.p. with 1×10^7 MDA-MB-435 cells expressing firefly luciferase in 100 µl PBS. […] All experiments were performed three times. The animals were controlled daily until they were sacrificed.

## O=C([O-])CN(CCN(CC(=O)[O-])CC(=O)[O-])CCN(CC(=O)[O-])CC(=O)[O-].[213Bi+3] [^213Bi-DTPA]
  mean survival: 48 days

Reference: PMC2682652 (PLoS ONE, 2009)
